Results: patent publication US9771394B2, “Antimicrobial polymyxins for treatment of bacterial infections” (priority 2014, dated 2017)
Several values for one entry are separate records, joined by “and”; a condition that tells them apart may be missing. Identical values can stand only once. Like-named read-outs stand apart in the source and are kept apart here. Marks after values point to notes of the source that are not given here. Starred links: 1 amine or outer side, 2 acyl side, 3 side chain; linkers in the order of their positions; H or OH if unused. Positions of bridges follow the written chain, without caps; N, C: chain ends. Non-standard residues stand in square brackets, D forms with d. Residues, ends and D or L forms follow the SMILES beside them. ξ: configuration not given here. *: point of attachment. Thr(3ξ) = CC(O)[C@H](N)C(=O)O; Suc = O=C(CCC(=O)[*:2])[*:1]; X1 = CCC(C)(C)C(=O)OCCC(=O)*; X5 = CCCCOP(=O)(O)CC(=O)*; Dab = NCC[C@H](N)C(=O)O

Key:
P. aeruginosa [1] = assay: P. aeruginosa thigh infection mouse model, IV dosing; assay type: in vivo, Pseudomonas aeruginosa; conditions: CFU change at 12 h vs no treatment control, PMB values in parenthesis side-by-side
Text: (§1) A lower ED50 value indicates a higher therapeutic efficacy of the drug. The number of surviving animals (from the total number of infected animals used at a given drug dose) is another indicator of efficacy. […] In thigh and lung infection models, a greater reduction in the bacterial colony-forming units (CFU) indicates stronger beneficial therapeutic effect (more bacterial eradication), while a lower CFU reduction or an increase in CFU value indicates a lower effect (less bacterial eradication), or an absence of the therapeutic effect.

[2] = test system: neutrophil gelatinase-associated lipocalin (NGAL); assay: Rat urine NGAL biomarker assay (in vivo nephrotoxicity); conditions: repeated dose, 25 mg/kg/day QID, SC, Low = signal similar to the background
Text: (§2) Nephrotoxicity of polymyxins could be determined in vitro using human renal […] (HK-2) cytotoxicity assay, analogously to that described, for example, by Keirstead et al. in Toxicol. Sci., 2014, vol. 137, pp. 278-291. In vivo, nephrotoxicity could be determined using urine biomarker assays, such as clinically validated neutrophil gelatinase-associated lipocalin (NGAL) assay described, for example by Devarajan in Scand. J. Clin. Lab. Invest. Suppl., 2008, vol. […], pp. 89-94.

E. coli = E. coli septicemia (systemic) mouse model, IV dosing; assay type: in vivo, Escherichia coli; conditions: PMB values are side-by-side comparator; for number (A) of surviving animals out of total (B) mice, A/B: at 5 mg/kg
Text: as §1

P. aeruginosa PAE 1001 = assay type: cell-based, Pseudomonas aeruginosa
Text: (§3) In vitro activity of compounds provided herein may be assessed by standard testing procedures such as the determination of minimum inhibitory concentration (MIC, μg/mL) just as described in “Methods for Dilution Antimicrobial Susceptibility Tests for Bacteria That Grow Aerobically; Approved Standard—Ninth Edition,” published in 2012 by the Clinical and Laboratory Standards Institute, Wayne, Pa., USA. Thus, bacterial colonies grown overnight on Mueller-Hinton Agar plate were selected and suspended in sterile saline to a turbidity of about 80% transmittance, as measured by a spectrophotometer. The suspension was diluted 200-fold with cation-adjusted Mueller-Hinton broth to serve as the inoculum for testing. Two-fold serial dilutions of the test compound were performed in 96-well master plate to arrive at desired concentration. Samples of 10 microliter from each well of the master plate were transferred into respective wells of 96-well assay plate. Bacterial inoculum (90 microliter) was introduced into each well of the assay plate. The assay plate was placed in the incubator at 35° C. for about 24 h (without agitation) followed by the MIC determination. MIC values were determined based on the presence or absence of bacterial growth in wells at the given test agent concentration. MIC value is defined as the lowest concentration of test antibiotic that prevents visible bacterial growth.
(§4) The useful activity of exemplary compounds described herein against Gram-negative pathogens Pseudomonas aeruginosa, Escherichia coli, or Klebsiela pneumoniae is illustrated by the MIC data of Table 1.

[3] = Stability in human plasma at 37° C.; assay type: in vitro ADME
Procedure: Exemplary compounds of this invention were tested for stability in human plasma at 37° C., replicating in vivo conditions of mammalian blood. Plasma stability for select compounds was performed as follows. Human plasma (K2 EDTA) was obtained from Bioreclamation. The assay was carried out in 96-well microtiter plates. Test compounds were incubated in duplicate at 37° C. in the presence of plasma. Reaction mixtures (25 μL) contained a final concentration of 25 μM test compound. The extent of metabolism was calculated as the disappearance of the test compound over time. Eucatropine was included as a positive control to verify assay performance. At each given time point, 100 μL of quench solution (100% MeCN with 0.1% HCOOH) with internal standard was transferred to each well. Plates were sealed, vortexed, and centrifuged at 4° C. for 15 minutes at 4,000 rpm. The supernatant was transferred to fresh plates for LC/MS/MS analysis. The formation of a potential metabolite was monitored in all samples. The samples were analyzed on LC/MS/MS using an AB Sciex API 4000 instrument, coupled to a Shimadzu LC-20AD LC Pump system. Analytical samples were separated using a Waters Atlantis T3 dC18 reverse phase HPLC column (20 mm×2.1 mm) at […] a flow rate of 0.5 mL/min, eluting with 0.1% aq. HCOOH and 0.1% HCOOH in MeCN (using gradient from 2% to 98% of the latter). Remaining test compounds were quantified via MS/MS ion current.

E. coli WECO 1003 = assay type: cell-based, Escherichia coli
Text: as §3, §4

human HK-2 cell = assay: Human HK-2 cell cytotoxicity assay (in vitro nephrotoxicity); assay type: cell-based
Text: as §2

P. aeruginosa [4] = assay: P. aeruginosa lung infection (pneumonia) mouse model, SC dosing; assay type: in vivo, Pseudomonas aeruginosa; conditions: for Relative CFU count, vs. PMB: mouse lung infection, 10 mg/kg; for P. aeruginosa Lung infection model ΔlogCFU at 10 mg/kg: mouse, CFU change at 24 h vs starting inoculum
Text: as §1

K. pneumoniae KPN1004 = assay type: cell-based, Klebsiela pneumoniae
Text: as §3, §4

[5] = test system: Gram-negative pathogens Pseudomonas aeruginosa, Escherichia coli, or Klebsiela pneumoniae; assay: MIC, Gram-negative panel of Table 1; assay type: cell-based
Text: In vitro activity of compounds provided herein may be assessed by standard testing procedures such as the determination of minimum inhibitory concentration (MIC, μg/mL) just as described in “Methods for Dilution Antimicrobial Susceptibility Tests for Bacteria That Grow Aerobically; Approved Standard—Ninth Edition,” published in 2012 by the Clinical and Laboratory Standards Institute, Wayne, Pa., USA. Thus, bacterial colonies grown overnight on Mueller-Hinton Agar plate were selected and suspended in sterile saline to a turbidity of about 80% transmittance, as measured by a spectrophotometer. The suspension was diluted 200-fold with cation-adjusted Mueller-Hinton broth to serve as the inoculum for testing. Two-fold serial dilutions of the test compound were performed in 96-well master plate to arrive at desired concentration. Samples of 10 microliter from each well of the master plate were transferred into respective wells of 96-well assay plate. Bacterial inoculum (90 microliter) was introduced into each well of the assay plate. The assay plate was placed in the incubator at 35° C. for about 24 h (without agitation) followed by the MIC determination. MIC values were determined based on the presence or absence of bacterial growth in wells at the given test agent concentration. MIC value is defined as the lowest concentration of test antibiotic that prevents visible bacterial growth. […]

[6] = 35° C., about 24 h, cation-adjusted Mueller-Hinton broth

Molecule | Antibacterial activity (MIC) P. aeruginosa PAE 1001 (P. aeruginosa PAE 1001; [6]) | Antibacterial activity (MIC) E. coli WECO 1003 (E. coli WECO 1003; [6]) | Relative CFU count, vs. PMB (P. aeruginosa [4]) | P. aeruginosa Lung infection model ΔlogCFU at 10 mg/kg (P. aeruginosa [4]) | Antibacterial activity (MIC) K. pneumoniae KPN1004 (K. pneumoniae KPN1004; [6]) | P. aeruginosa Thigh model, IV dosing ΔlogCFU at 5 mg/kg (P. aeruginosa [1]) | Antibacterial activity (MIC) P. aeruginosa PAE 1001 (P. aeruginosa PAE 1001; PAE 1001, 24 h) [µg/mL] | Antibacterial activity (MIC) E. coli WECO 1003 (E. coli WECO 1003; WECO 1003, 24 h) [µg/mL] | HK-2 cytotoxicity class (human HK-2 cell) | IC50 (human HK-2 cell) [µM] | Antibacterial activity (MIC) K. pneumoniae KPN1004 (K. pneumoniae KPN1004; KPN1004, 24 h) [µg/mL] | also measured
polymyxin B [reference compound] | 2-4^a μg/mL | 2-4^a μg/mL | 1 | +2.61 | 2-4^a μg/mL |  |  |  |  |  |  | P. aeruginosa Thigh model, IV dosing ΔlogCFU at 5 mg/kg (P. aeruginosa [1]; listed as Polymyxin B (PMB)): −1.49 to −3.33; In vivo: rat urine biomarker NGAL [2]: High: above detection; E. coli Systemic model, IV dosing ED50 (E. coli; listed as PMB): 4.6 mg/kg and 3.9 mg/kg and 2.5 mg/kg; E. coli Systemic model, IV dosing ED50 (E. coli; listed as Polymyxin B (PMB)): 4 to 7 mg/kg; number (A) of surviving animals out of total (B) mice, A/B (E. coli; listed as PMB): 2/6 and 5/6 and 3/6; Compound remaining, % T = 1.0 h ([3]; human plasma, 37° C., 25 μM, 1.0 h): 100^a^ %; Compound remaining, % T = 4.0 h ([3]; human plasma, 37° C., 25 μM, 4.0 h): 100^a %; HK-2 cytotoxicity class (human HK-2 cell; HK-2 cytotoxicity, Eurofins Cerep): Class 1; IC50 (human HK-2 cell; HK-2 cytotoxicity, Eurofins Cerep, read-out: In vitro: human HK-2 cell assay IC50): 82 µM
CCC(C)(C)C(=O)OCCC(=O)N[C@@H](CCN)C(=O)N[C@H](C(=O)N[C@@H](CCN)C(=O)N[C@H]1CCNC(=O)[C@H](C(C)O)NC(=O)[C@H](CCN)NC(=O)[C@H](CCN)NC(=O)[C@H](CC(C)C)NC(=O)[C@@H](Cc2ccccc2)NC(=O)[C@H](CCN)NC1=O)C(C)O (stereo partly shown) [Example 12] (X1-[Dab][Thr(3ξ)][Dab][Dab][Dab][dF]L[Dab][Dab][Thr(3ξ)]; lactam 4-C) |  |  | 1.7 × 10^−5 | −2.15 |  | −1.44 | 4 | 2 | Class 4 | > 200 | 2 | E. coli Systemic model, IV dosing ED50 (E. coli): 2.5 mg/kg; number (A) of surviving animals out of total (B) mice, A/B (E. coli): 3/6; remaining at 1 h, 25 μM ([3]; human, plasma): 67%; remaining at 4 h, 25 μM ([3]; human, plasma): 31%
CC(C)C[C@@H]1NC(=O)[C@@H](Cc2ccccc2)NC(=O)[C@H](CCN)NC(=O)[C@@H](NC(=O)[C@H](CCN)NC(=O)[C@@H](NC(=O)[C@H](CCN)NC(=O)CCC(=O)O)C(C)O)CCNC(=O)[C@H](C(C)O)NC(=O)[C@H](CCN)NC(=O)[C@H](CCN)NC1=O (stereo partly shown) [Example 19] (Suc-[Dab][Thr(3ξ)][Dab][Dab][Dab][dF]L[Dab][Dab][Thr(3ξ)]; lactam 4-C) |  |  |  |  |  | −0.14 | 4 | >32 | Class 4 | > 200 | >32 | antibacterial activity in words (MIC, Table 1) ([5]; Example 19: against two Gram-negative pathogens in the test): essentially inactive
CCCCOP(=O)(O)CC(=O)N[C@@H](CCN)C(=O)N[C@H](C(=O)N[C@@H](CCN)C(=O)N[C@H]1CCNC(=O)[C@H](C(C)O)NC(=O)[C@H](CCN)NC(=O)[C@H](CCN)NC(=O)[C@H](CC(C)C)NC(=O)[C@@H](Cc2ccccc2)NC(=O)[C@H](CCN)NC1=O)C(C)O (stereo partly shown) [Example 33] (X5-[Dab][Thr(3ξ)][Dab][Dab][Dab][dF]L[Dab][Dab][Thr(3ξ)]; lactam 4-C) | 8 µg/mL | 8 µg/mL |  |  | 8 µg/mL |  |  |  |  |  |  | fold less active than polymyxin B comparator (MIC) ([5]; vs polymyxin B): about 2 fold
